Reference: ChEMBL document CHEMBL5380874, “Transformation of a Dopamine D2 Receptor Agonist to Partial Agonists as Novel Antipsychotic Agents” (J Med Chem, 2023)

Tests used:
D(2) dopamine receptor [1] = biological target: T1, D(2) dopamine receptor (Homo sapiens, UniProt P14416); experiment: Displacement of [3H]N-methylspiperone from Dopamine D2 receptor (unknown origin) expressed in HEK293T cell membrane incubated for 2 hrs by radioligand competitive binding based MicroBeta TriLux reader method; format: cell membranes
D(2) dopamine receptor [2] = biological target: T1, D(2) dopamine receptor; experiment: Partial agonist activity at Dopamine D2 receptor (unknown origin) expressed in HEK293T coexpressing beta-arrestin-2 assessed as increase in cAMP accumulation incubated for 5 mins by beta-arrestin recruitment based BRET assay; format: functional, cell-based
D(2) dopamine receptor [3] = biological target: T1, D(2) dopamine receptor; experiment: Partial agonist activity at Dopamine D2 receptor (unknown origin) expressed in HEK293T co-expressing G-alphai assessed as increase in cAMP accumulation incubated for 5 mins by BRET assay; format: functional, cell-based; conditions: read-out: EC50
[4] = Drug concentration in C57BL/6J mouse plasma at 5 mg/kg,ip measured at 2 hrs by LC-MS analysis; format: ADME, organism-based; conditions: in vivo
[5] = Ratio of drug concentration in brain to plasma in C57BL/6J mouse at 5 mg/kg,ip measured at 2 hrs by LC-MS analysis; format: ADME, organism-based; conditions: read-out: BPR
[6] = Ratio of drug concentration in brain to plasma in C57BL/6J mouse at 5 mg/kg,ip measured at 0.5 hrs by LC-MS analysis; format: ADME, organism-based; conditions: read-out: BPR
[7] = Drug concentration in C57BL/6J mouse brain at 5 mg/kg,ip measured at 2 hrs by LC-MS analysis; format: ADME, organism-based; conditions: read-out: Ct
[8] = Drug concentration in C57BL/6J mouse brain at 5 mg/kg,ip measured at 0.5 hrs by LC-MS analysis; format: ADME, organism-based; conditions: read-out: Ct
D(1B) dopamine receptor = D(1B) dopamine receptor (Homo sapiens, UniProt P21918); experiment: Displacement of […] from Dopamine D5 receptor (unknown origin) expressed in HEK293T cell membrane incubated for 2 hrs by radioligand competitive binding based MicroBeta TriLux reader method; format: cell membranes
[9] = Drug concentration in C57BL/6J mouse plasma at 5 mg/kg,ip measured at 0.5 hrs by LC-MS analysis; format: ADME, organism-based; conditions: in vivo
[10] = biological target: T2, 5-hydroxytryptamine receptor 2C (Homo sapiens, UniProt P28335); experiment: Displacement of [3H]-LSD from 5-HT2C receptor (unknown origin) expressed in HEK293T cell membrane incubated for 2 hrs by radioligand competitive binding based MicroBeta TriLux reader method; format: cell membranes; conditions: read-out: Ki
T2 sequence (P28335 whole entry): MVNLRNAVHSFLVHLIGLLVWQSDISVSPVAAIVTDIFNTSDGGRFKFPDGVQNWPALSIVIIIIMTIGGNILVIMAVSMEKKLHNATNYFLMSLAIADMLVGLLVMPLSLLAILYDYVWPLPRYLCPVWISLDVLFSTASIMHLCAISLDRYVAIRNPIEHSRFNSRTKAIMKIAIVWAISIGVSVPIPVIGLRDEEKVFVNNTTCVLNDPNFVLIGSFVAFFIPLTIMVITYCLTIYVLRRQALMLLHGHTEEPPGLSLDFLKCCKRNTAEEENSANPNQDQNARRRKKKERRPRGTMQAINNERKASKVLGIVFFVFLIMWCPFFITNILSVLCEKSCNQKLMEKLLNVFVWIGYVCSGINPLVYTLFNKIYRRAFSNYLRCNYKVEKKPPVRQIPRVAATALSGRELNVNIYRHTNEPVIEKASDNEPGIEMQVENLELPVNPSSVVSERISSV

D(1A) dopamine receptor = D(1A) dopamine receptor (Homo sapiens, UniProt P21728); experiment: Displacement of [3H]-SCH23390 from Dopamine D1 receptor (unknown origin) expressed in HEK293T cell membrane incubated for 2 hrs by radioligand competitive binding based MicroBeta TriLux reader method; format: cell membranes
Sequence of D(1A) dopamine receptor (P21728 whole entry): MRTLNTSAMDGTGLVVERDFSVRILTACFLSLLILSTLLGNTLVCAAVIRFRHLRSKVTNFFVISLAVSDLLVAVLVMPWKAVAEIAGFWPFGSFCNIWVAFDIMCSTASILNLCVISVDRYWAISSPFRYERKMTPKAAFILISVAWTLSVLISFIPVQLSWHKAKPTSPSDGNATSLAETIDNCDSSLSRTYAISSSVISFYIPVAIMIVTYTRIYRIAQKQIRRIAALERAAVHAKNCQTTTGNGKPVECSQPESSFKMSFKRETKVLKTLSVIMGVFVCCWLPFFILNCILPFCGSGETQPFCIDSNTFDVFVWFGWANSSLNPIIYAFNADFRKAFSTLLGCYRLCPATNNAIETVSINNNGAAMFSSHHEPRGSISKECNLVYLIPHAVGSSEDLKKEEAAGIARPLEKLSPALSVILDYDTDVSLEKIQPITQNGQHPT

T1 sequence (P14416 whole entry): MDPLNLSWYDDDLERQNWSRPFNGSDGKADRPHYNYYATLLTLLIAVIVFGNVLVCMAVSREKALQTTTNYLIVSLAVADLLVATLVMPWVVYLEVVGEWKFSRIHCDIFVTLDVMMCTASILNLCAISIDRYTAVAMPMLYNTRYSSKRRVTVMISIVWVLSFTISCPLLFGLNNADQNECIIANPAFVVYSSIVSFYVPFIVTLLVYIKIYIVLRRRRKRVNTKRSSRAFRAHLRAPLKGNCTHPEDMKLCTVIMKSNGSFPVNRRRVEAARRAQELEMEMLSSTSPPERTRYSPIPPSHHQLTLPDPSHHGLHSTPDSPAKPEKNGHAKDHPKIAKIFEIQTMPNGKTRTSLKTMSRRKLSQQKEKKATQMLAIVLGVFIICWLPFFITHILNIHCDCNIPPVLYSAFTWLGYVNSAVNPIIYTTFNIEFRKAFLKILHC
Sequence of D(1B) dopamine receptor (P21918 whole entry): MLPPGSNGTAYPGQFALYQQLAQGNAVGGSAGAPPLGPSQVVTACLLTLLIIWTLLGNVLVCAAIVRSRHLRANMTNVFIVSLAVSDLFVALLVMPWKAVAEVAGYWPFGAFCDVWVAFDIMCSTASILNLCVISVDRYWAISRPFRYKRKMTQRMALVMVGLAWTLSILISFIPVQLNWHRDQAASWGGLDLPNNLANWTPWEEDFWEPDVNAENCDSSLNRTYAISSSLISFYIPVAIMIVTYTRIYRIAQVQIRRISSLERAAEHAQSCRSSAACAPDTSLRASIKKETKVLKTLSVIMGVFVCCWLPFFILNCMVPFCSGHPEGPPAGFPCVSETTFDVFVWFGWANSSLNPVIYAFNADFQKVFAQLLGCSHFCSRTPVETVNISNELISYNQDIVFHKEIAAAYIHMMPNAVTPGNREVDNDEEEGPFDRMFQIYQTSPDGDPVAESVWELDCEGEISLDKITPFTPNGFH

Structure (SMILES) | Ki (D(2) dopamine receptor [1]; read-out: Ki) | EC50 (D(2) dopamine receptor [2]; read-out: EC50) | EC50 (D(2) dopamine receptor [3]) | other results
COc1cccc2c3c(oc12)CN(CCCCOc1ccc2cccnc2c1)CC3 | 1.34 µM | 0.518 µM | 2.21 µM | –
COc1cccc2cc(CNCCCOc3ccc4ccc(=O)[nH]c4c3)sc12 | 0.181 µM | 0.0205 µM | 0.27 µM | –
CCOc1cccc2cc(CNCCCCCOc3ccc4c(c3)NC(=O)CC4)oc12 | 0.439 µM | 0.0451 µM | 0.955 µM | EC50 (D(2) dopamine receptor [2]; read-out: pEC50 (converted)): 0.0457 µM; Ki (D(2) dopamine receptor [1]; read-out: pKi (converted)): 0.447 µM
COc1cccc2c3c(oc12)CN(CCCCOc1ccc2c(c1)NC(=O)CC2)CC3 | – | – | – | Cp [4]: 0.571 µg/mL; Kp at 2 h [5]: 0.439; Kp at 0.5 h [6]: 0.759; concentration at 2 h [7]: 0.332 µg/mL; concentration at 0.5 h [8]: 0.41 µg/mL; Ki (D(1B) dopamine receptor; read-out: Ki): 0.159 µM; Ki (D(1B) dopamine receptor; read-out: pKi (converted)): 0.162 µM; Cp [9]: 0.54 µg/mL; Ki [10]: 0.611 µM; Ki (D(1A) dopamine receptor; read-out: Ki): 0.0355 µM; Ki (D(1A) dopamine receptor; read-out: pKi (converted)): 0.0363 µM
COc1cccc2c3c(oc12)CN(C/C=C/COc1ccc2ccc(=O)[nH]c2c1)CC3 | – | 0.023 µM | – | –
CCOc1cccc2cc(CNCCCCOc3ccc4oc(C)nc4c3)oc12 | 0.935 µM | 0.125 µM | 2.67 µM | EC50 (D(2) dopamine receptor [2]; read-out: pEC50 (converted)): 0.135 µM; Ki (D(2) dopamine receptor [1]; read-out: pKi (converted)): 0.955 µM
O=C1CCc2ccc(OCCCCNCc3cc4ccccc4o3)cc2N1 | 0.582 µM | 0.00729 µM | 0.0537 µM | –

Further compounds by falling Ki (D(2) dopamine receptor [1]; read-out: Ki), results first:

Ki (D(2) dopamine receptor [1]; read-out: Ki) | EC50 (D(2) dopamine receptor [2]; read-out: EC50) | EC50 (D(2) dopamine receptor [3]) | Structure (SMILES) | other results
2.28 µM | – | – | COc1cccc2c3c(oc12)CN(CCCCOc1ccc2ccc(=O)n(C)c2c1)CC3 | –
2.13 µM | – | – | CCOc1cccc2cc(C(C)NCC3(O)CCCCC3)oc12 (centres undefined) | –
0.109 µM | 0.0122 µM | 0.0304 µM | CCOc1cccc2cc(CNCCCOc3ccc4c(c3)NC(=O)CC4)oc12 | –
0.0628 µM | 0.00408 µM | 0.0068 µM | CCOc1cccc2cc(CNCC[C@H]3CC[C@H](NC(=O)C4CC4)CC3)oc12 | –
